The values that follow come from ChEMBL document CHEMBL1201862, “PubChem BioAssay data set” (2004).

Some test systems named below: LXFL 529; SNB-75; M19-MEL; SK-MEL-5; Malme-3M; A498; SR; SF-268; DMS-273; SN12C; HCT-15; DMS-114; XF498.
Holding throughout (assay): DTP human tumour cell line panel, 48 h

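Grown in 96-well plates, cells were treated for 48 hours with each compound at five concentrations. Insufficient inhibition: endpoint recorded as highest concentration tested. GI50 marks 50% less growth.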 The source made the active and inactive calls. Rule as the data show it: active = GI50 up to about 1.1 µM and inactive = higher.

A word on the GI50: it is the concentration that inhibits growth by half. Consider `N#C/C(=C1/Sc2c(nc[nH]c2=O)N1c1ccccc1)c1nc2ccccc2[nH]1`, for which the GI50 in the test on LXFL 529 was > 100 µM (inactive); in the test on SNB-75, 26 µM (inactive); in the test with M19-MEL, > 100 µM (inactive); with SK-MEL-5, > 100 µM (inactive); in the test with Malme-3M, > 100 µM (inactive); in the test with A498, > 100 µM (inactive). Also, the GI50 was > 100 µM (inactive) with SR; > 100 µM (inactive) with SF-268; > 100 µM (inactive) with DMS-273; > 100 µM (inactive) in the test with SN12C; greater than 100 µM in the test on HCT-15; > 100 µM (inactive) with DMS-114. In the test with XF498, the GI50 is > 100 µM (inactive).

Consider `CC(C)=CC1(C)/C(=N\O)C(C)(CC(C)C)C(=O)N1O` (configuration not stated), for which the GI50 with LXFL 529, in the test with SNB-75, in the test on M19-MEL, in the test with SK-MEL-5, in the test on Malme-3M and in the test on A498 was > 100 µM (inactive) each time. Moreover, the GI50 with SR was > 100 µM (inactive); with DMS-273, > 100 µM (inactive); in the test on SN12C, > 100 µM (inactive); with HCT-15 it was greater than 100 µM; with DMS-114, > 100 µM (inactive); in the test with XF498, 11.3 µM (inactive).

As for `C=C1[C@@H]2CCC(C)(C)[C@H]1CCC(=O)[C@@H]2C(=O)OC`, the GI50 in the test with LXFL 529, in the test with M19-MEL, in the test with SK-MEL-5, with Malme-3M, in the test with A498 and in the test with SR was > 100 µM (inactive) in each case. The GI50 in the test on SF-268 is > 100 µM (inactive); in the test with DMS-273, > 100 µM (inactive); with SN12C, > 100 µM (inactive); in the test with HCT-15 it was greater than 100 µM; in the test with DMS-114, > 100 µM (inactive); in the test with XF498, > 100 µM (inactive).
